Measurements reported in US20090143279A1 (priority 2007, published 2009).
Like-named read-outs stand apart in the source and are kept apart here.

How the values were obtained:
[1] = test system: mitochondrial membrane potential; format: cell-based, mouse
reactive oxygen species = format: cell-based, mouse
OXPHOS gene expression = format: cell-based, mouse
nuOXPHOS transcripts = format: cell-based, mouse
mtOXPHOS transcripts = format: cell-based, mouse
cytochrome c = format: cell-based, mouse
[2] = test system: cellular dehydrogenase activity
[3] = 8.76 μM, composite Z-score vs DMSO
[4] = 20 μM, composite Z-score vs DMSO
[5] = composite Z-score vs DMSO, Conc 20 μM
[6] = normalized composite Z-score vs mock-treated (DMSO) wells, Conc 20 μM
[7] = Conc 20 μM, normalized score vs mock-treated (DMSO) wells
[8] = composite Z-score vs mock-treated (DMSO) wells, Conc 20 μM
[9] = composite Z-score vs DMSO wells, Conc 20 μM
[10] = 15.02 μM, composite Z-score vs DMSO

Q: What does the source list for `Cc1cc(N)c2ccccc2[n+]1CCCCCCCCCC[n+]1c(C)cc(N)c2ccccc21` [dequalinium]?
A: ΔΨm [1, 3]: −3.242; ΔΨm [1, 4]: −2.506; ROS (reactive oxygen species; [3]): −3.041; ROS (reactive oxygen species; [4]): −3.055; GE-HTS (OXPHOS gene expression; [3]): −1.322; GE-HTS (OXPHOS gene expression; [4]): −1.733; nucOX (nuOXPHOS transcripts; [3]): −0.852; nucOX (nuOXPHOS transcripts; [4]): −1.087; mitoOX (mtOXPHOS transcripts; [3]): −2.024; mitoOX (mtOXPHOS transcripts; [4]): −2.705; cyt c (cytochrome c; [3]): −4.108; cyt c (cytochrome c; [4]): −3.241; Viability (C2C12 myotubes; [3]): −3.696; Viability (C2C12 myotubes; [4]): −3.176; MTT [2, 3]: −5.151; MTT [2, 4]: −4.446

Q: Which ΔΨm [1, 5] does the source give for `CC(C)=CCc1c(O)cc2occ(-c3ccc4c(c3)OCO4)c(=O)c2c1O` [derrubone] here?
A: −1.272

Q: And the ROS (reactive oxygen species; [5])?
A: 1.419

Q: What about the GE-HTS (OXPHOS gene expression; [5]) of the same molecule?
A: −0.409

Q: And the nucOX (nuOXPHOS transcripts; [5])?
A: −0.626

Q: What about the mitoOX (mtOXPHOS transcripts; [5]) of the same molecule?
A: 0.066

Q: What about the cyt c (cytochrome c; [5]) of the same molecule?
A: −0.126

Q: And the Viability (C2C12 myotubes; [5])?
A: −0.568

Q: What about the MTT [2, 5] of the same molecule?
A: −0.499

Q: How did the ΔΨm [1, 6] turn out when `COc1cc(OC)c2c(OC)c(-c3ccc4c(c3)OCO4)c(=O)oc2c1` [derrusnin] was run?
A: 0.025

Q: What about the ROS (reactive oxygen species; [6]) of the same molecule?
A: 4.060

Q: And the GE-HTS (OXPHOS gene expression; [6])?
A: 0.039

Q: What about the nucOX (nuOXPHOS transcripts; [6]) of the same molecule?
A: −0.129

Q: And the mitoOX (mtOXPHOS transcripts; [6])?
A: 0.417

Q: What about the cyt c (cytochrome c; [6]) of the same molecule?
A: 0.511

Q: And the Viability (C2C12 myotubes; [6])?
A: 1.067

Q: What about the MTT [2, 6] of the same molecule?
A: −1.630

Q: Which ΔΨm [1, 5] does the source give for `c1ccc2c(c1)CN1CCCC1=N2` [desoxypeganine] here?
A: 1.046

Q: And the ROS (reactive oxygen species; [5])?
A: 0.647

Q: And the GE-HTS (OXPHOS gene expression; [5])?
A: 0.631

Q: What about the nucOX (nuOXPHOS transcripts; [5]) of the same molecule?
A: 0.621

Q: What about the mitoOX (mtOXPHOS transcripts; [5]) of the same molecule?
A: 0.556

Q: What about the cyt c (cytochrome c; [5]) of the same molecule?
A: 0.372

Q: And the Viability (C2C12 myotubes; [5])?
A: −0.281

Q: And the MTT [2, 5]?
A: 1.441

Q: For `CC(=O)OCC(=O)[C@@]1(O)[C@H](C)C[C@H]2[C@@H]3CCC4=CC(=O)C=C[C@]4(C)[C@@]3(F)[C@@H](O)C[C@@]21C` [dexamethasone acetate], which ΔΨm [1, 5] is on record?
A: −0.439

Q: And the ROS (reactive oxygen species; [5])?
A: 0.067

Q: And the GE-HTS (OXPHOS gene expression; [5])?
A: 0.461

Q: And the nucOX (nuOXPHOS transcripts; [5])?
A: 0.516

Q: What about the mitoOX (mtOXPHOS transcripts; [5]) of the same molecule?
A: 0.330

Q: And the cyt c (cytochrome c; [5])?
A: 0.174

Q: What about the Viability (C2C12 myotubes; [5]) of the same molecule?
A: −1.518

Q: And the MTT [2, 5]?
A: 0.058

Q: With `CC(=O)Oc1cccc2c1C(=O)c1c(OC(C)=O)cc(C(=O)O)cc1C2=O` [diacerin] as the molecule, how does the “ΔΨm (composite Z-score)” value [1, 7] read?
A: 0.195

Q: And the “ROS (composite Z-score)” value (reactive oxygen species; [7])?
A: 0.228

Q: What about the “GE-HTS (composite Z-score)” value (OXPHOS gene expression; [7]) of the same molecule?
A: −0.446

Q: What about the “nucOX (composite Z-score)” value (nuOXPHOS transcripts; [7]) of the same molecule?
A: −0.509

Q: What about the “mitoOX (composite Z-score)” value (mtOXPHOS transcripts; [7]) of the same molecule?
A: −0.239

Q: And the “cyt c (composite Z-score)” value (cytochrome c; [7])?
A: 0.389

Q: And the “Viability (composite Z-score)” value (C2C12 myotubes; [7])?
A: −0.692

Q: And the “MTT (composite Z-score)” value [2, 7]?
A: −0.608

Q: What does the source list for `CC(=O)c1c(O)c(C)c(O)c2c1oc1c(C(C)=O)c(O)c(C)c(O)c12` [diacetyldideisovaleryl-rhodomyrtoxin]?
A: ΔΨm [1, 8]: 1.937; ROS (reactive oxygen species; [8]): 0.967; GE-HTS (OXPHOS gene expression; [8]): −0.776; nucOX (nuOXPHOS transcripts; [8]): −0.742; mitoOX (mtOXPHOS transcripts; [8]): −0.703; cyt c (cytochrome c; [8]): 0.057; Viability (C2C12 myotubes; [8]): −0.779; MTT [2, 8]: 0.875

Q: What does the source list for `Cc1onc(-c2c(Cl)cccc2Cl)c1C(=O)N[C@@H]1C(=O)N2[C@@H]1SC(C)(C)[C@@H]2C(=O)O` [dicloxacillin sodium]?
A: ΔΨm [1, 9]: 0.196; ROS (reactive oxygen species; [9]): −0.070; GE-HTS (OXPHOS gene expression; [9]): 0.661; nucOX (nuOXPHOS transcripts; [9]): 0.533; mitoOX (mtOXPHOS transcripts; [9]): 0.870; cyt c (cytochrome c; [9]): −1.277; Viability (C2C12 myotubes; [9]): −0.214; MTT [2, 9]: −0.587

Q: Which results are given for `C/C=C(/C(=C/C)c1ccc(O)cc1)c1ccc(O)cc1` [dienestrol]?
A: ΔΨm [1, 10]: −0.205; ΔΨm [1, 4]: 0.129; ROS (reactive oxygen species; [10]): −0.210; ROS (reactive oxygen species; [4]): −0.260; GE-HTS (OXPHOS gene expression; [10]): 0.033; GE-HTS (OXPHOS gene expression; [4]): −0.280; nucOX (nuOXPHOS transcripts; [10]): −0.191; nucOX (nuOXPHOS transcripts; [4]): −0.251; mitoOX (mtOXPHOS transcripts; [10]): 0.481; mitoOX (mtOXPHOS transcripts; [4]): −0.222; cyt c (cytochrome c; [10]): 0.894; cyt c (cytochrome c; [4]): −0.653; Viability (C2C12 myotubes; [10]): 0.829; Viability (C2C12 myotubes; [4]): 0.290; MTT [2, 10]: −0.652; MTT [2, 4]: −0.326

Q: With `CC1(C)C(=O)CC[C@@]2(C)C1C[C@@H](O)[C@@]1(C)C3=CC(=O)O[C@@H](c4ccoc4)[C@]3(C)CCC21` (stereo partly shown) [dihydro-7-desacetyldeoxygedunin] as the molecule, how does the ΔΨm [1, 6] read?
A: −0.170

Q: What about the ROS (reactive oxygen species; [6]) of the same molecule?
A: 0.608

Q: And the GE-HTS (OXPHOS gene expression; [6])?
A: −0.961

Q: What about the nucOX (nuOXPHOS transcripts; [6]) of the same molecule?
A: −0.719

Q: And the mitoOX (mtOXPHOS transcripts; [6])?
A: −1.218

Q: What about the cyt c (cytochrome c; [6]) of the same molecule?
A: 0.599

Q: What about the Viability (C2C12 myotubes; [6]) of the same molecule?
A: −0.527

Q: And the MTT [2, 6]?
A: −1.403

Q: For `CC(C)C1COc2cc3oc(=O)ccc3cc2O1` (stereo not shown) [dihydro-obliquin], which ΔΨm [1, 6] is on record?
A: −0.159

Q: What about the ROS (reactive oxygen species; [6]) of the same molecule?
A: 1.045

Q: What about the GE-HTS (OXPHOS gene expression; [6]) of the same molecule?
A: 0.233

Q: What about the nucOX (nuOXPHOS transcripts; [6]) of the same molecule?
A: 0.192

Q: And the mitoOX (mtOXPHOS transcripts; [6])?
A: 0.303

Q: What about the cyt c (cytochrome c; [6]) of the same molecule?
A: −0.662

Q: And the Viability (C2C12 myotubes; [6])?
A: −0.141

Q: What about the MTT [2, 6] of the same molecule?
A: −0.661

Q: Which ΔΨm [1, 6] does the source give for `C=C1CCC(=O)C(C)CCC2C1CC2(C)C` (stereo not shown) [dihydrocaryophyllen-5-one] here?
A: 0.090

Q: And the ROS (reactive oxygen species; [6])?
A: 0.483

Q: And the GE-HTS (OXPHOS gene expression; [6])?
A: −0.496

Q: What about the nucOX (nuOXPHOS transcripts; [6]) of the same molecule?
A: −0.513

Q: And the mitoOX (mtOXPHOS transcripts; [6])?
A: −0.317

Q: And the cyt c (cytochrome c; [6])?
A: 0.620

Q: What about the Viability (C2C12 myotubes; [6]) of the same molecule?
A: 0.219

Q: What about the MTT [2, 6] of the same molecule?
A: −1.453
